Ends that are not written are not given here.

Type in all cases: cell-based
One data set deals with human erythrocytes. In words: Hemolysis assay. The settings on record: for haemolysis: even at higher concentrations; for Cytotoxicity, Hemolysis assay: sample 512 µg.mL^−1, 24 h by the footnote (method: 1 h, 37°C), relative to 0.1% triton X-100, OD 540 nm, mean ± S.D., three independent experiments. How it is done: Human heparine-blood was obtained from the Universidade Católica de Brasilia cell collection. Collection was obtained with written informed consent. Heparine blood cells were centrifuged at 800 g for 10 min. The erythrocytes were washed three times and re-suspended in 0.1% PBS, pH 7.4. […] The positive control was 0.1% triton X-100 (Sigma-Aldrich, USA). The samples were then centrifuged at 800 g for 10 min. The optical density at 540 nm of the supernatant was measured. The relative optical density compared to that of the suspension treated with 0.1% triton X-100 defined hemolysis percent.

For data set [1], the system named is Pseudomonas aeruginosa (ATCC15442). In words: MIC determination, broth dilution. The settings on record: fragments, first figure of the cell (µM/µg.mL^−1); Mueller-Hinton broth, 37°C, 12 h; 100% growth inhibition. How it is done: (§1) The minimal inhibitory concentration (MIC) was determined using a standardized dilution method according to NCSLA guidelines. Overnight colonies of Bacillus subtilis (ATCC 6633), Enterococcus faecalis (ATCC 12953), Staphylococcus aureus (ATCC29213), Streptococcus pyogenes (ATCC19615), Escherichia coli (ATCC8739), Klebsiella pneumonia (ATCC13885), Proteus mirabilis (ATCC25933), Pseudomonas aeruginosa ATCC 15442 and Salmonella typhimurium (ATCC14028) were suspended to a turbidity of 0.5 units and further diluted in Mueller-Hinton broth (MH) (Himedia - India). […] Ten microliters of each concentration was added to each corresponding well of a 96-well plate (TPP, Switzerland) and 1×10^5 bacteria in the volume of 90 µL. The plate was incubated at 37°C for 12 h.
(In general: In broth dilution the organism is exposed to a series of concentrations in liquid medium.)

For data set [2], the system named is Klebsiella pneumoniae (ATCC13885). The data set can be described thus: MIC determination, broth dilution. As to conditions: fragments, first figure of the cell (µM/µg.mL^−1); Mueller-Hinton broth, 37°C, 12 h; 100% growth inhibition. How it is done: as §1
In data set [3] the test system is Proteus mirabilis (ATCC25933). The data set can be described thus: MIC determination, broth dilution. As to conditions: fragments, first figure of the cell (µM/µg.mL^−1); Mueller-Hinton broth, 37°C, 12 h; 100% growth inhibition. How it is done:
as §1

The test system of data set [4] is Staphylococcus aureus (ATCC29213). The data set can be described thus: MIC determination, broth dilution. As to conditions: fragments, first figure of the cell (µM/µg.mL^−1); Mueller-Hinton broth, 37°C, 12 h; 100% growth inhibition. As to the method: as §1
For data set [5], the system named is Bacillus subtilis (ATCC 6633). The data set can be described thus: MIC determination, broth dilution. As to conditions: fragments, first figure of the cell (µM/µg.mL^−1); Mueller-Hinton broth, 37°C, 12 h; 100% growth inhibition. How it is done:
as §1

For data set [6], the system named is Salmonella typhimurium (ATCC14028). The data set can be described thus: MIC determination, broth dilution. The settings on record: fragments, first figure of the cell (µM/µg.mL^−1); Mueller-Hinton broth, 37°C, 12 h; 100% growth inhibition. How it is done:
as §1

The subject of data set [7] is Streptococcus pyogenes (ATCC19615). The data set can be described thus: MIC determination, broth dilution. As to conditions: fragments, first figure of the cell (µM/µg.mL^−1); Mueller-Hinton broth, 37°C, 12 h; 100% growth inhibition. How it is done:
as §1

Data set [8] relates to Enterococcus faecalis (ATCC 12953). The data set can be described thus: MIC determination, broth dilution. The settings on record: fragments, first figure of the cell (µM/µg.mL^−1); Mueller-Hinton broth, 37°C, 12 h; 100% growth inhibition. How it is done: as §1
Data set [9] deals with Escherichia coli (ATCC8739). The data set can be described thus: MIC determination, broth dilution. As to conditions: fragments, first figure of the cell (µM/µg.mL^−1); Mueller-Hinton broth, 37°C, 12 h; 100% growth inhibition. How it is done:
as §1

Data set [10] concerns RAW 264.7 murine macrophage-like cells. The data set can be described thus: Cell cytotoxicity, MTT assay. The settings on record: for Cytotoxicity, MTT assay: RAW264.7 cells, sample 512 µg.mL^−1, 24 h, mean ± S.D., three independent experiments; for cell viability: RAW264.7, even at higher concentrations. As to the method: Sterile filtered MTT (3-(4,5-dimethylthiazolyl)-2,5-diphenyl-tetrazoliumbromide; Sigma-Aldrich, USA) solution (5 mg.mL^−1 in PBS) was dark stored at −20°C. RAW 264.7 murine macrophage-like cells, 1×10^5 cells/well was seeded in 96 well plates (TPP, Switzerland), in supplemented DMEM medium (4 mM glutamine, 10% FCS and 100 units.ml^−1 penicillin/streptomycin) containing multiple treatments. Treatments consisted of fractions F-44, F-51, F-68, BmLAO (0–512 µg.mL^−1) and fragments BmLAO-f1, BmLAO-f2 and BmLAO-f3 at different concentrations (0–500 µM). After overnight incubation, 60% of medium was then removed, and 10 µl of the MTT solution was added to each well; the plates were then incubated for 4 h in the presence of 5% CO2 at 37°C. The blue formazan product generated was dissolved by the addition of 100 µl of 100% DMSO (Mallinckrodt Chemical) per well. The plates were then gently swirled for 5 min at room temperature in order to dissolve the precipitate. The absorbance was monitored at 575 nm in a Biotek Powerwave HT microplate spectrophotometer (Bio-Tek Instruments, USA).
In general terms: Tetrazolium dyes change colour on reduction, which living cells bring about.

Turning to IKFEPPLPPKKAH-NH2 [BmLAO-f1], in the data set with human erythrocytes, the haemolysis result is “less than 25%”. For the same substance, the “Cytotoxicity, Hemolysis assay” value in the data set with human erythrocytes is listed as 13.75±3.6 % of control. Further, the MIC in data set [1] was 22 µM; in [2] it was 22 µM; in data set [3], 43 µM; in data set [4], 43 µM; in [5], 43 µM; in [6], 43 µM. Also, the minimal inhibitory concentration (MIC) is listed as 43 µM in data set [7], 43 µM in data set [8] and 22 µM in data set [9]. In addition, the “Cytotoxicity, MTT assay” value in data set [10] was 21.0±3.5 % of control.

In the case of KKFWEDDG-NH2 [BmLAO-f2], the haemolysis result in the data set on human erythrocytes is on record as “less than 25%”. Besides, in the data set with human erythrocytes, the “Cytotoxicity, Hemolysis assay” value is listed as 11.32±2.9 % of control. Besides, the MIC in data set [1] is 250 µM; in data set [2] it was 125 µM; in data set [3], 125 µM; in data set [4], 250 µM; in data set [5], 250 µM; in data set [7], 125 µM. Besides, the MIC turned out to be 125 µM in data set [8] and 250 µM in data set [9]. Also, the cell viability result in data set [10] is on record as “over 78%”. Further, the “Cytotoxicity, MTT assay” value in [10] is reported as 13.6±4.5 % of control.

In the case of IYYPPNHNFP-NH2 [BmLAO-f3], in the data set with human erythrocytes, the haemolysis entry is “less than 25%”. The “Cytotoxicity, Hemolysis assay” value in the data set with human erythrocytes is 9.87±3.1 % of control. For the same substance, the MIC was determined as 220 µM in data set [1]; 110 µM in data set [2]; 110 µM in data set [3]; 220 µM in [4]; 220 µM in data set [5]; 220 µM in data set [6]. The MIC in [7] is 110 µM; in data set [8], 110 µM; in [9], 220 µM. Besides, in data set [10], the cell viability entry is given as “over 78%”. Also, the “Cytotoxicity, MTT assay” value in [10] is 11.2±2.1 % of control.

In general, MIC refers to the lowest concentration that inhibits growth of the organism. A high value points to weaker potency.

For the origin of these results see article PMC3306279, “Evaluation of an Antimicrobial L-Amino Acid Oxidase and Peptide Derivatives from Bothropoides mattogrosensis Pitviper Venom” (PLoS ONE, 2012).
